Laboratory results reported in patent US20220265646A1, “PIEZO AGONISTS FOR PREVENTING OR REVERTING ABNORMAL AMYLOID DEPOSITION” (ITÄ-SUOMEN YLIOPISTO, priority 2019, published 2022).

Columns and labels:
[1] = test system: hIPSC-derived microglia; assay: Cytokine measurement (cytokine bead assay) in LPS-treated iPSC-derived microglia; format: cell-based, human; details: Yoda1 20 μM (Y20), n=4 per group
Description: Cytokine measurement. The impact of Piezo1Rs effect on the capacity of the iPSC derived microglia to release cytokines was evaluated using cytokine bead assay (CBA, PD Pharmingen)). Shortly, prior to the experiment IPSCs were plated in 24-well plate at 70,000 cells/cm^2 and cultured for 48 hours. […] Next, media were collected, centrifuged to remove any cell debris, and the supernatant was frozen at −70° C. Cytokines were analyzed with cytometric bead array mouse inflammation kit (BD Biosciences) according to manufacturer's instructions.

[2] = test system: hiPSC-microglia; assay: Cytotoxicity assay (Cytotox Green, Incucyte S3); format: cell-based; details: 2-20 μM Yoda1, 60-hour time point, n=3 experiments
Description: Cytotoxicity assay. The cytotoxicity of in vitro cultures was assessed with Cytotox Green assay (Essen Bioscience) using Incucyte S3 Live-Cell Analysis System (Essen Bioscience, Ann Arbor, Mich., USA, #4647). Microglia were seeded for the assay at density of 15 000 cells per well on poly-D-lysine (PDL, Sigma, #P0899) coated Nunclon (Thermo Scientific, #167008) or ImageLock 96-well plates (Essen Bioscience, #4379). On the assay day, cells were treated with 0.1-20 μM Yoda1 (Tocris, #5586) in PM medium supplemented with 250 nM Cytotox Green reagent (Essen Bioscience, #4633). Equal volume of DMSO (Sigma, #D2650) was used as a vehicle and 200 μM MPP+(Sigma, #D048) was applied as a positive control. Cells were live-imaged in IncuCyte S3 at 37° C. and 5% CO2 every 3 hours for 3 days to obtain cell death over time. One to two 10× images per well were captured using the phase-contrast mode to obtain confluency and the green fluorescence mode to obtain fluorescent intensity. Quantification was performed using IncuCyte S3 Software (2019B). Green fluorescence was separated from background with a top-hat thresholding and all settings were kept constant between different conditions. […]

[3] = test system: N2a cells; assay: Apoptosis assay in N2a cells under hypoxia; format: cell-based; details: 5 μM Yoda1 three days, 1% hypoxia 24 h
Description: Apoptosis assay in N2a cells. N2a cells were treated with 5 μM Yoda1 or vehicle for three consecutive days and exposed to 1% hypoxia as described above for 24 h before collecting the cells for apoptosis assay. The apoptotic cells were labeled with APC Annexin Ready Flow -dye (1:12.5 dilution, Invitrogen, Carlsbad, Calif., USA) in Annexin V Binding Buffer (10 mM HEPES, 150 mM NaCl, 2.5 mM CaCl2 in PBS, pH 7.4). 4′,6-Diamidino-2-Phenylindole, Dilactate (DAPI; Invitrogen, Carlsbad, Calif., USA) staining was added at 1:3300 dilution to label late apoptotic and necrotic cells. The samples were run with CytoFLEX S instrument (Beckman Coulter Life Sciences, Indianapolis, Ind., USA), and the results were analysed with CytExpert software (version 2.3.0.84, Beckman Coulter Life Sciences, Indianapolis, Ind., USA). The results of hypoxic samples were normalized to corresponding normoxic samples.

[4] = target: T1, Piezo channels in red blood cells (Mus musculus, UniProt E2JF22); assay: Red blood cell (RBC) Ca2+ flux by flow cytometry; format: cell-based; details: 10 uM Yoda1, 17-23 weeks of age
T1 construct: from tissue; host or cells: red blood cells from blood of 5xFAD transgenic mice and wild-type controls
Description: The blood samples (50-100 μl) were collected from 5xFAD mice at different ages (13-15 weeks, 15-17 weeks, 17-19 weeks, 19-21 weeks and 21-23 weeks of age) for analysis of RBC Ca2 flux. Shortly, the blood samples were collected in Eppendorf tubes with sodium citrate to prevent coagulation. Then the samples were filtered through 100 μm filters to remove possible contaminants and aggregates, followed by two times wash with PBS (5 mins, 300g, RT) to remove plasma. 50 μl of red blood cells were transferred to dean tube and resuspended in 200 μl PBS (250 μl total volume of cell suspension). 250 μl of Fluo4 stock solution was added and cells were incubated for 30 minutes at 37° C. in dark. […] The Ca2+ flux was recorded by CytoFlex at high 60 μl/min flow rate. Recording was started at 20 sec run after the flow rate is stabilized, After 20 sec recording (baseline fluorescence), the Yoda1 at final concentration 10 μM was applied, at 4 min 20 sec time point (4 minutes after Yoda1 is added) ionomycin at 10 μM final concentration is added as positive control and sample is continued running until 6 min were up. Mean fluorescence intensity was measured using gates at different time points—baseline (before application of Yoda1 10 μM), at 1 min, 2 min, 3 min, at 4 min of recording. […]
The samples were recorded for 6 minutes. […]

T1 sequence (E2JF22 whole entry): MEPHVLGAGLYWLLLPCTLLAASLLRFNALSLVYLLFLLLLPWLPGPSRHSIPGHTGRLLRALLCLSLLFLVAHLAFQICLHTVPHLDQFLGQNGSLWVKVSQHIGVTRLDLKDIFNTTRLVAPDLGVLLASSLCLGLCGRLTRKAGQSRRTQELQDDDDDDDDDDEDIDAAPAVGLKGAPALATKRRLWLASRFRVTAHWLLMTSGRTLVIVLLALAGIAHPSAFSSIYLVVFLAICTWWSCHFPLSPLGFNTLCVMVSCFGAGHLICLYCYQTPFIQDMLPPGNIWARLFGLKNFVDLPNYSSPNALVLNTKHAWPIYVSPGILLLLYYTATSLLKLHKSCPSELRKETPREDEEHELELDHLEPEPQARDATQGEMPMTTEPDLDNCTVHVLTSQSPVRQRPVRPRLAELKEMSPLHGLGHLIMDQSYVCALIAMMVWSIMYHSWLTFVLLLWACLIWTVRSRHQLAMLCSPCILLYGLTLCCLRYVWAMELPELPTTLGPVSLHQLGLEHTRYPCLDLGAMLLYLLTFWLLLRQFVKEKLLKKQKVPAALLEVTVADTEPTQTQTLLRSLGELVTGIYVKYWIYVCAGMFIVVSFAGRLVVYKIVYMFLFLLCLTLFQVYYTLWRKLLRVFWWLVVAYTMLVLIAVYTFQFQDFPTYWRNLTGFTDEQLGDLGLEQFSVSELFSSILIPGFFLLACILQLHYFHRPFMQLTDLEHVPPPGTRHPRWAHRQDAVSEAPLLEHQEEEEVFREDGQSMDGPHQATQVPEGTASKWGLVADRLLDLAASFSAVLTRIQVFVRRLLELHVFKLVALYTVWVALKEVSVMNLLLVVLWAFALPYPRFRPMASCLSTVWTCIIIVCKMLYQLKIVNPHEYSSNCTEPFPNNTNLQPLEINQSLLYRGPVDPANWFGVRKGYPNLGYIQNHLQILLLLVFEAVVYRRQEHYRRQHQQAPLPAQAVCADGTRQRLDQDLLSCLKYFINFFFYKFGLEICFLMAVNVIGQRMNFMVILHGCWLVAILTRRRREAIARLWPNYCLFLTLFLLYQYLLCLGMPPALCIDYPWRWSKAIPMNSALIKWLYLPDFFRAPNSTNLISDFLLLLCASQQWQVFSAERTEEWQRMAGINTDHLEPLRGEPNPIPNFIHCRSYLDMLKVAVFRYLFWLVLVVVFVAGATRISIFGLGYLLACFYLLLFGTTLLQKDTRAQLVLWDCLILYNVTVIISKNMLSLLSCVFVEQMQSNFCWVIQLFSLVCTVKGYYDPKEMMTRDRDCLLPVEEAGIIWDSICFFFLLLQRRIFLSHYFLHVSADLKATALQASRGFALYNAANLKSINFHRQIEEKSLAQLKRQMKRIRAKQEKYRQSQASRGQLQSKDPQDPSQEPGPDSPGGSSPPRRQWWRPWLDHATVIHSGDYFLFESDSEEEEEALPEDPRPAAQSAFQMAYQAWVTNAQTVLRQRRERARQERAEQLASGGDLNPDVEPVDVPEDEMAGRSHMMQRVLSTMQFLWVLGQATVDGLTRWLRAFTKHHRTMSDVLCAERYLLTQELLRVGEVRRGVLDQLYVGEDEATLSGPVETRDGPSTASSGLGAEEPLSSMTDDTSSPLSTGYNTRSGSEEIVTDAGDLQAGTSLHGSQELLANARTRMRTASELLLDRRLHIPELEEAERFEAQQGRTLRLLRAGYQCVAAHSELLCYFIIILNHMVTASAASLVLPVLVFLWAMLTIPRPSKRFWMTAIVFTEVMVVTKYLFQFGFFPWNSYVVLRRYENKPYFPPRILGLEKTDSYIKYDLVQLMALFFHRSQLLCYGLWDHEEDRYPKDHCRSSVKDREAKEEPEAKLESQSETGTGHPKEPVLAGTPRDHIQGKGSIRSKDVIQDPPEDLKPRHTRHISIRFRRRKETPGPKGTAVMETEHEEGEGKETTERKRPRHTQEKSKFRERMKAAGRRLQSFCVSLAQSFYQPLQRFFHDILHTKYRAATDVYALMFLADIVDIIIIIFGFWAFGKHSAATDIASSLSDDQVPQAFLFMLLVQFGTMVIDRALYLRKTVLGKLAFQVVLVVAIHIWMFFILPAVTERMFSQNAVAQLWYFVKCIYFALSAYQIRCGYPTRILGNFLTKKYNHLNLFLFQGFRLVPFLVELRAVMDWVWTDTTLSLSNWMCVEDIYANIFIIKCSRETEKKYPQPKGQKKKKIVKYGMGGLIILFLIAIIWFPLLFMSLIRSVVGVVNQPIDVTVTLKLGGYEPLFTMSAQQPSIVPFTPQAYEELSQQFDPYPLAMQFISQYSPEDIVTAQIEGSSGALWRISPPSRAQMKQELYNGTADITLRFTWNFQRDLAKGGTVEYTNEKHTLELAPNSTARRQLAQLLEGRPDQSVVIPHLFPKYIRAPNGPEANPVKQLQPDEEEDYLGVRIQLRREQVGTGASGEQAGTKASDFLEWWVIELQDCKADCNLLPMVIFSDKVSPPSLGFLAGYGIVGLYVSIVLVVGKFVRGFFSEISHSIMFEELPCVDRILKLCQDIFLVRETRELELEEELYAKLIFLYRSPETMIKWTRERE

Clc1cccc(Cl)c1CSc1nnc(-c2cnccn2)s1 [Yoda1]
secretion of anti-inflammatory IL-10 ([1]; LPS): increases the secretion | LPS induced secretion of pro-inflammatory IL-6 [1]: prevented the LPS induced secretion | LPS induced secretion of pro-inflammatory IL-8 [1]: prevented the LPS induced secretion | LPS induced secretion of pro-inflammatory MCP1 [1]: prevented the LPS induced secretion | microglial cell death (cytotoxicity dye uptake) [2]: protects hiPSC-microglia from cell death | hypoxia-induced early apoptosis [3]: almost completely block | hypoxia-induced late apoptosis [3]: almost completely block | Yoda1 elicited calcium responses in red blood cells, TG 5xFAD versus age-matched WT [4]: significantly lower
